Results as given in patent publication EP0252299A2, “Use of 12-amino-pyridazino[4',5':3,4]pyrrolo[2,1-a]isoquinolines in the preparation of cardioprotective and neuroprotective agents” (BOEHRINGER INGELHEIM KG, priority 1986, dated 1988).

Experiments:
[1] = test system: myocardiale Radio-Calciumaufnahme; assay: Cardioprotective effect: inhibition of isoprenaline-induced myocardial radio-calcium uptake in conscious rats (method of Arndts); type: in vivo, Ratten; settings: s.c. or p.o., dose that inhibits by 50 % the myocardial radio-calcium uptake caused by 30 mg/kg s.c. Isoprenalin
Excerpt: Die cardioprotektive Wirkung wird auf folgende Weise bestimmt: Bekanntlich ist der mycardiale Ca⁺²-Gehalt ein Maß für die hypoxische bzw. die durch toxische Catecholamindosen hervorgerufene Herzschädigung (Higgins et al., Mol. Cell. Cardiol. 10: 427 - 438, 1984; Nakanishi et al., Am. J. Physiol. 242: 437 - 449, 1982; Fleckenstein, A., Vorträge der Erlanger Physiol. Tagung 1970, Ed. Keidel, Springer Verlag Berlin, Heidelberg, New York, 1971). Umgekehrt ist die Inhibition der hypoxischen oder Isoprenalin-bedingten myocardialen Calciumaufnahme ein Maß für die cardioprotektive Effektivität von Calciumantagonisten (Fleckenstein s.o.), von Calmodulininhibitoren (Higgins) und anderen Pharmaka, z.B. Betaadrenolytika (Arndts, Arzneimittelforschung 25: 1279 -1284, 1975).
Die cardioprotektive Wirkung wurde an wachen Ratten nach subcutaner oder peroraler Wirkstoffgabe anhand der von Arndts (s.o.) beschriebenen Methode festgestellt, und die Wirkungsstärke der Testsubstanzen als H₅₀-Wert angegeben; dieser Wert entspricht der Dosis, die die durch eine Gabe von 30 (mg/kg; s.c.) Isoprenalin bedingte, myocardiale Radio-Calciumaufnahme zu 50 % hemmt. Hier erwiesen sich die untersuchten neuen Verbindungen als ebenso wirksam wie Nifedipin.

Isoliertes Rattenherz = assay: Isolated Langendorff rat heart, low-flow oxygen deficiency and reperfusion: time to onset of regular contractions; parameters: species or system Ratten; settings: concentration giving a significant reduction of the time to onset of regular contractions; infusion during O2 deficiency
Procedure: Die Untersuchungen am isolierten Langendorff-Herzen wurden nach O. Langendorff, Pflügers Arch. 61, 291 (1895) mit kleinen Abwandlungen ausgeführt:
Isoliertes Rattenherz, retrograde Perfusion über die Aorta. Elektrische Stimulation (300 Impulse/min. Impulsdauer Imsec.). Messung des linksventrikulär entwickelten Druckes mit flüssigkeitsgefülltem Latex-Ballon. Nach 20 min Aequilibrierung Auslösen eines Sauerstoff-Mangelzustandes mit 100-fach vermindertem Fluß durch Drosselung des Perfusionsflusses für 60 min, Rückkehr zu normalem Fluß bewirkt starken Anstieg der Grundspannung, unter Kontrollbedingungen setzt die Herztätigkeit nach 6 - 7 min unregelmäßig wieder ein, nach 15 -18 min rascher Übergang zu regelmäßigen Kontraktionen. Cardioprotektiv wirksame Verbindungen verkürzen die Zeit bis zum Einsetzen regelmäßiger Kontraktionen. Infusion der Testsubstanz (gelöst in unbegastem Perfusionsmedium) während des 0₂-Mangelzustandes herznah in das Perfusionssystem.
Die getesteten Verbindungen ergaben bei Anwendung in der unten angegebenen Konzentration eine signifikante Reduktion der Zeit bis zum Einsetzen regelmäßiger Kontraktionen.

Kaninchen-Aortenstreifen = assay: Calcium ion kinetics (45Ca2+ efflux) in rabbit aortic strips; settings: for Potenzierung des stimulierten Ca²⁺-Efflux: stimulation with 80 mM K⁺
Excerpt: Bestimmung der Calcium-Ionenkinetik an Kaninchen-Aortenstreifen
Methode nach C. van Breemen, P. Aaronson, R. Loutzenheiser und K. Meisheri CHEST 78: 157s - 165s (1980) und R. Casteels & G. Droogman J. Physiol 317: 263 - 279 (1981)
Methode: Mit ⁴⁵Ca²⁺ geladene Aortenstreifen werden sequentiell äquilibriert in physiologischer Lösung. Dabei tauscht das intrazelluläre Ca²⁺ mit dem extrazellulären Ca²⁺ aus, das heißt im extrazellulären Bad ist das radioaktive ⁴⁵Ca²⁺ meßbar. Auf eine Stimulation mit 80 mM K⁺ oder 10⁻⁵ Mol/l Noradrenalin (NA) hin wird der Austausch beschleunigt. Dabei ist die im Bad ansteigende Radioaktivität ein Maß für den Ca²⁺-Efflux. So wird das Ausmaß der durch die Stimulation freigesetzten Ca²⁺ als Effluxrate bestimmt.

[2] = Microiontophoresis (standard method)
Excerpt: Die Mikrointophorese wurde gemäß Standardmethode durchgeführt.

Tieren = assay: Hypoxia tolerance test: survival of animals in a closed chamber; type: in vivo; settings: gas mixture 96,5 % nitrogen and 3,5 % oxygen; doses up to 30 mg/kg
[3] = Scopolamine-induced impairment of short-term memory (scopolamine dementia); type: in vivo; settings: Scopolamin 0,6 mg/kg i.p.
Excerpt: In Vesuchen mit Einschränkung des Kurzzeitgedächtnisses bzw.

Row | Compound | H50-Wert [1] | Hypoxie (Tieren) | Scopolamin-Demenz ([3]; doses up to 30 mg/kg) | also measured
1 | 3,4-Dihydro-6,7-dimethoxy-12-(2-methoxyethyl)-amino-pyridazino [4ʹ,5ʹ : 3,4] pyrrolo [2,1-a] isochinolin | 1,92 | – | – | –
2 | 3,4-Dihydro-6,7-dimethoxy-12-(3-dimethylaminopropyl)-aminopyridazino [4ʹ,5ʹ : 3,4]pyrrolo[2,1-a]isochinolin | 0,46 | wirksam (wirksam: Im Dosenbereich bis einschließlich 30 mg/kg zeigen in der mit Substanz behandelten Tiergruppe signifikant mehr Tiere den gewünschten Effekt als in der Kontrollgruppe.) | – | Konzentration (Isoliertes Rattenherz): 13,3 µg/ml; Potenzierung des stimulierten Ca²⁺-Efflux (Kaninchen-Aortenstreifen): 11%; Hemmung des stimulierten Ca²⁺-Efflux (Kaninchen-Aortenstreifen; stimulation with 10⁻⁵ Mol/l Noradrenalin (NA)): 19%; Mikroiontophorese [2]: wirksam (wirksam: Im Dosenbereich bis einschließlich 30 mg/kg zeigen in der mit Substanz behandelten Tiergruppe signifikant mehr Tiere den gewünschten Effekt als in der Kontrollgruppe.)
3 | 3,4-Dihydro-6,7-dimethoxy-12-benzylamino-pyridazino[4ʹ,5ʹ : 3,4] pyrrolo[2,1-a]isochinolin [Verbindung H] | – | – | wirksam (wirksam: Im Dosenbereich bis einschließlich 30 mg/kg zeigen in der mit Substanz behandelten Tiergruppe signifikant mehr Tiere den gewünschten Effekt als in der Kontrollgruppe.) | –
4 | 3,4-Dihydro-6,7-dimethoxy-12-ethylamino-pyridazino-[4ʹ,5ʹ : 3,4] pyrrolo [2,1-a] isochinolin [B] | – | wirksam (wirksam: Im Dosenbereich bis einschließlich 30 mg/kg zeigen in der mit Substanz behandelten Tiergruppe signifikant mehr Tiere den gewünschten Effekt als in der Kontrollgruppe.) | – | Potenzierung des stimulierten Ca²⁺-Efflux (Kaninchen-Aortenstreifen): 27%
5 | 3,4-Dihydro-6,7-dimethoxy-12-isopropylamino-pyridazino-[4ʹ,5ʹ : 3,4] pyrrolo [2,1-a] isochinolin | – | wirksam (wirksam: Im Dosenbereich bis einschließlich 30 mg/kg zeigen in der mit Substanz behandelten Tiergruppe signifikant mehr Tiere den gewünschten Effekt als in der Kontrollgruppe.) | – | –
6 | 12-Allylamino-3,4-dihydro-6,7-dimethoxy-pyridazino-[4ʹ,5ʹ : 3,4] pyrrolo[2,1-a]isochinolin | 2,42 | – | – | –
7 | COc1ccc([C@@H]2Sc3ccccc3N(CCN(C)C)C(=O)[C@@H]2OC(C)=O)cc1 [Diltiazem, reference compound] | – | unwirksam | unwirksam | –
8 | COC(=O)C1=C(C)NC(C)=C(C(=O)OC)C1c1ccccc1[N+](=O)[O-] [Nifedipin] | – | unwirksam | – | Scopolamin-Demenz ([3]; dose 1 mg/kg): wirksam (wirksam: Im Dosenbereich bis einschließlich 30 mg/kg zeigen in der mit Substanz behandelten Tiergruppe signifikant mehr Tiere den gewünschten Effekt als in der Kontrollgruppe.); Scopolamin-Demenz ([3]; dose 3-30): unwirksam
9 | COc1ccc(CCN(C)CCCC(C#N)(c2ccc(OC)c(OC)c2)C(C)C)cc1OC (stereo not drawn) [Verapamil] | – | – | unwirksam | –
